# Non-standard residues stand in square brackets, D forms with d. Trp(6-F) = N[C@@H](Cc1c[nH]c2cc(F)ccc12)C(=O)O; Bpa = N[C@@H](Cc1ccc(C(=O)c2ccccc2)cc1)C(=O)O; 1Nal = N[C@@H](Cc1cccc2ccccc12)C(=O)O; 2Nal = N[C@@H](Cc1ccc2ccccc2c1)C(=O)O
# B1: CA28-2GS-BF (bifunctionalized PEG-based compstatin analog, GS type) (peptide)
# peptide: ICVWQDWGAHRCTK
# modifications: N-terminal acetyl; 1-methyl-tryptophan at position 4; disulfide Cys2-Cys12; AEEAc linker after Thr13; Lys side chain coupled to one end of a bifunctional linear 40 kD PEG (glutaryl, GS type); C-terminal amide
# B2: CA28-AEEAc-Lys(mPEG40K-carbonyl) (peptide)
# peptide: ICVWQDWGAHRCTK
# modifications: not fully specified; N-terminal acetyl; 1-methyl-tryptophan at position 4; disulfide Cys2-Cys12; AEEAc linker after Thr13; linear 40 kD mPEG (NOF ME-400TS, carbonyl) on the Lys side chain; C-terminal amide
# B3: CA28-AEEAc-Lys(mPEG40K-succinyl) (peptide)
# peptide: ICVWQDWGAHRCTK
# modifications: N-terminal acetyl; 1-methyl-tryptophan at position 4; disulfide Cys2-Cys12; AEEAc linker after Thr13; linear 40 kD mPEG (NOF ME-400CS, succinyl) on the Lys side chain; C-terminal amide
# B4: CA28-AEEAc-Lys(mPEG40K-hexanoyl) (peptide)
# peptide: ICVWQDWGAHRCTK
# modifications: N-terminal acetyl; 1-methyl-tryptophan at position 4; disulfide Cys2-Cys12; AEEAc linker after Thr13; linear 40 kD mPEG (NOF ME-400HS, hexanoyl) on the Lys side chain; C-terminal amide
# B5: CA28-AEEAc-Lys-(PEG40k) (peptide)
# peptide: ICVWQDWGAHRCTK
# modifications: N-terminal acetyl; 1-methyl-tryptophan at position 4; disulfide Cys2-Cys12; AEEAc linker after Thr13; linear 40 kD mPEG (NOF ME-400GS, glutaryl) on the Lys side chain; C-terminal amide
# B6: CA28-AEEAc-Lys-(PEG30k) (peptide)
# peptide: ICVWQDWGAHRCTK
# modifications: N-terminal acetyl; 1-methyl-tryptophan at position 4; disulfide Cys2-Cys12; AEEAc (8-amino-3,6-dioxaoctanoyl) linker after Thr13; linear 30 kD mPEG (NOF ME-300GS) on the Lys side chain; C-terminal amide
# Key:
# [1] = tested on: complement activation; conditions: relative to compstatin amidated at the C-terminus; published data; cited from earlier work
# [2] = previous study of CA28 administered intravenously (historical data); assay type: in vivo, Cynomolgus monkeys; conditions: for Serum concentration: CA28 (IV) 200 mg/kg, unit not in table
# Excerpt: Average values and standard deviations are readily calculated. There was notable consistency between animals.
# The data points represent all PEGylated CA28 compound detected.
# [3] = target: T1, complement component C3 (human) (human, UniProt P01024 23-1663); test: cell-based or functional assay
# [4] = target: T1, complement component C3 (human); test: cell-based or functional assay; remark: listed apart in the source
# [5] = target: T1, complement component C3 (human); test: cell-based or functional assay; remark: listed apart in the source
molecule,measurement,setting,value
Ac-ICV(5fW)QDWGAHRCT-CONH2 [Ac-V4(5fW)/H9A],Activity over compstatin,[1],31 × more
Ac-ICV(2-Nal)QDWGAHRCT-CONH2 (Ac-ICV[2Nal]QDWGAHRCT-NH2; cysteine pairing not given here) [Ac-V4(2-Nal)/H9A],Activity over compstatin,[1],99 × more
Ac-ICVWQDWGAHRCT-CONH2 [Ac-V4W/H9A],Activity over compstatin,[1],45 × more
Ac-ICVVQDWGHHRCT-CONH2 [Ac-compstatin],Activity over compstatin,[1],3 × more
Ac-ICVDhtQDWGAHRCT-COOH [Ac-V4Dht/H9A-OH],Activity over compstatin,[1],5 × more
Ac-ICV(Bpa)QDWGAHRCT-COOH (Ac-ICV[Bpa]QDWGAHRCT-OH; not fully specified (bridges); printed as Ac-ICV(Bpa)QDWGAHRCT-COOH; cysteine pairing not given here) [Ac-V4(Bpa)/H9A-OH],Activity over compstatin,[1],49 × more
Ac-ICV(5-methyl-W)QDWGAHRCT-CONH2 [Ac-V4(5-MeW)/H9A],Activity over compstatin,[1],67 × more
Ac-ICV(2-IgI)QDWGAHRCT-CONH2 (Ac-ICV[2‑IgI]QDWGAHRCT-NH2; cysteine pairing not given here) [Ac-V42IgI/H9A],Activity over compstatin,[1],39 × more
Ac-ICV(2-Nal)QDWGAHRCT-COOH (Ac-ICV[2Nal]QDWGAHRCT-OH; cysteine pairing not given here) [Ac V4(2-Nal)/H9A-OH],Activity over compstatin,[1],38 × more
H-GICV(6fW)QD(6fW)GAHRCTN-COON (H-GICV[Trp(6-F)]QD[Trp(6-F)]GAHRCTN-OH; not fully specified (bridges); cysteine pairing not given here) [+G/V4(6fW)/W7(6fW)H9A+N-OH],Activity over compstatin,[1],126 × more
Ac-ICVWQD(5fW)GAHRCT-CONH2 [Ac-V4W/W7(5fW)/H9A],Activity over compstatin,[1],121 × more
Ac-ICVWQDWGAHRCdT-COOH [Ac-V4W/H9A/T13dT-OH],Activity over compstatin,[1],55 × more
Ac-ICVYQDWGAHRCT-CONH2 [Ac-V4Y/H9A],Activity over compstatin,[1],14 × more
Ac-ICV(Bpa)QDWGAHRCT-CONH2 (Ac-ICV[Bpa]QDWGAHRCT-NH2; not fully specified (bridges); printed as Ac-ICV(Bpa)QDWGAHRCT-CONH2; cysteine pairing not given here) [Ac-V4(Bpa)/H9A],Activity over compstatin,[1],86 × more
Ac-ICV(1-Nal)QDWGAHRCT-COOH (Ac-ICV[1Nal]QDWGAHRCT-OH; cysteine pairing not given here) [Ac V4(1-Nal)/H9A-OH],Activity over compstatin,[1],30 × more
Ac-ICV(2-IgI)QDWGAHRCT-COOH (Ac-ICV[2‑IgI]QDWGAHRCT-OH; cysteine pairing not given here) [Ac-V42IgI/H9A-OH],Activity over compstatin,[1],37 × more
CC[C@H](C)[C@H](NC(C)=O)C(=O)N[C@H]1CSSC[C@@H](C(=O)N[C@H](C(N)=O)[C@@H](C)O)NC(=O)[C@H](CCCNC(=N)N)NC(=O)[C@H](Cc2cnc[nH]2)NC(=O)[C@H](C)NC(=O)CNC(=O)[C@H](Cc2c[nH]c3ccccc23)NC(=O)[C@H](CC(=O)O)NC(=O)[C@H](CCC(N)=O)NC(=O)[C@H](Cc2cn(C)c3ccccc23)NC(=O)[C@H](C(C)C)NC1=O [CA28],Serum concentration,"[2]; time 0.02 days, historical data",34
same,Serum concentration,"[2]; time 0.042 days, historical data",17
same,Serum concentration,"[2]; time 0.167 days, historical data",9
same,Serum concentration,"[2]; time 0.333 days, historical data",5
same,Serum concentration,"[2]; time 1 day, historical data",1.5
same,level at 4.008 h,"[2]; cynomolgus monkey, serum, iv, 200 mg/kg, read-out: Serum Concentration",9000 ng/mL
same,level at 0.48 h,"[2]; cynomolgus monkey, serum, IV 200 mg/kg, time 0.02 days, historical data, HPLC, read-out: Serum Concentration",34000 ng/mL
same,level at 1.008 h,"[2]; cynomolgus monkey, serum, IV 200 mg/kg, time 0.042 days, historical data, HPLC, read-out: Serum Concentration",17000 ng/mL
same,level at 7.992 h,"[2]; cynomolgus monkey, serum, IV 200 mg/kg, time 0.333 days, historical data, HPLC, read-out: Serum Concentration",5000 ng/mL
same,level at 24 h,"[2]; cynomolgus monkey, serum, IV 200 mg/kg, time 1 day, historical data, HPLC, read-out: Serum Concentration",1500 ng/mL
B1,"% Parent in Q1 (Type III cells with high C3d deposition); modified Ham's assay, 50 ug/ml",[3],0.01%
same,"% Parent in Q2 (Type I and II cells with high C3d deposition); modified Ham's assay, 50 ug/ml",[3],0.01%
same,"% Parent in Q3 (Type III cells without significant C3d deposition); modified Ham's assay, 50 ug/ml",[3],61.5%
same,"% Parent in Q4 (Type I and II cells without significant C3d deposition); modified Ham's assay, 50 ug/ml",[3],38.5%
B2,"IC50 (read off the curve); classical pathway complement activation (C3b deposition ELISA, human plasma)",[4],~0.7 µM
B3,"IC50 (read off the curve); classical pathway complement activation (C3b deposition ELISA, human plasma)",[4],~0.7 µM
B4,"IC50 (read off the curve); classical pathway complement activation (C3b deposition ELISA, human plasma)",[4],~0.7 µM
B5,"IC50 (read off the curve); classical pathway complement activation (C3b deposition ELISA, human plasma)",[4],~0.7 µM
same,"IC50, classical complement inhibition assay (C3b deposition ELISA)",[5],1.29 µM
B6,"IC50, classical complement inhibition assay (C3b deposition ELISA)",[5],1.26 µM

# From patent US20160194359A1, “CELL-REACTIVE, LONG-ACTING, OR TARGETED COMPSTATIN ANALOGS AND RELATED COMPOSITIONS AND METHODS” (APELLIS PHARMACEUTICALS, INC., priority 2012, published 2016)
